US7741327B2 (Hoffmann-La Roche Inc., priority 2008, dated 2010)

Molecular target: T1, Recombinant human liver GK1 (GST-GK) (Homo sapiens, UniProt P35557)
T1 construct: made in house; host or cells: E. coli
T1 sequence (P35557 1-466 isoform P35557-2): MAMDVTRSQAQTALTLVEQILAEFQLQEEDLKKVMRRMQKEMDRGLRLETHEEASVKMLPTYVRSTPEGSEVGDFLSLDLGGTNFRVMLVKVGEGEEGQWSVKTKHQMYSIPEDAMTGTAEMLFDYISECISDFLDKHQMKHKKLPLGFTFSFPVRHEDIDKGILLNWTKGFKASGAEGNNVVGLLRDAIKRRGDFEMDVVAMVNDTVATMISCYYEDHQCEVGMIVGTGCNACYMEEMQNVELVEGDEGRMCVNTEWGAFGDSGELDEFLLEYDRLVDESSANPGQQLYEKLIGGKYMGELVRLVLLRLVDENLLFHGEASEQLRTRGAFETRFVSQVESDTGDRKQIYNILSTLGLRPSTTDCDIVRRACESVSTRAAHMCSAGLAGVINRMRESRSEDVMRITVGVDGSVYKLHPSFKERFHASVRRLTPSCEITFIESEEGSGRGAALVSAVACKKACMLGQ
Experiment: In vitro glucokinase activity (G6PDH-coupled NADH assay)
Assay type: biochemical
Details: 30° C., 5 mM D-glucose, 10% DMSO
Protocol: Glucokinase In Vitro Assay Protocol: Glucokinase (GK) was assayed by coupling the production of glucose-6-phosphate to the generation of NADH with glucose-6-phosphate dehydrogenase (G6PDH, 0.75-1 kunits/mg; Boehringer Mannheim, Indianapolis, Ind.) from Leuconostoc mesenteroides as the coupling enzyme (Scheme 2).
Recombinant human liver GK1 was expressed in E. coli as a glutathione S-transferase fusion protein (GST-GK) [Liang et al, 1995] and was purified by chromatography over a glutathione-Sepharose 4B affinity column using the procedure provided by the manufacturer (Amersham Pharmacia Biotech, Piscataway, N.J.).
The assay was conducted at 30° C. in a flat bottom 96-well tissue culture plate from Costar (Cambridge, Mass.) with a final incubation volume of 120 μL. The incubation reaction contained the following: 25 mM Hepes buffer (pH 7.1), 25 mM KCl, 5 mM D-glucose, 1 mM ATP, 1.8 mM NAD, 2 mM MgCl2, 1 μM sorbitol-6-phosphate, 1 mM dithiothreitol, test drug or 10% dimethylsulfoxide, ˜7 units/ml G6PDH, and GK (see below). All organic reagents were >98% pure and were from Boehringer Mannheim with the exceptions of D-glucose and Hepes which were from Sigma Chemical Co, St Louis, Mo. Test compounds were dissolved in dimethylsulfoxide and were added to the incubation reaction minus GST-GK in a volume of 12 μL to yield a final dimethylsulfoxide concentration of 10%. This mix was pre-incubated in the temperature controlled chamber of a SPECTRAmax 250 microplate spectrophotometer (Molecular Devices Corporation, Sunnyvale, Calif.) for 10 min to allow temperature equilibrium and then the reaction was started by the addition of 20 μL GST-GK.
After addition of enzyme, the increase in optical density (OD) at 340 nm was monitored spectrophotometrically to determine the rate of change (OD340 per min). The GK activity (OD340/min) in control wells (10% DMSO minus GK activators) was compared with the activity in wells containing test GK activators, and the concentration of activator that produced a 50% increase in the activity of GK, i.e., the SC1.5, was calculated. The table below provides the in vitro glucokinase activity for the compounds in the Examples: […]

Going from `CC[C@H](C)CC(C(=O)Nc1ccn(C[C@@H]2COC(C)(C)O2)n1)N1CC(Oc2ccccc2Cl)=CC1=O` (mixture of isomers) [Example 248, (S)-2-[4-(2-Chloro-phenoxy)-2-oxo-2,5-dihydro-pyrrol-1-yl]-4-methyl-hexanoic acid [1-((R)-2,2-dimethyl-[1,3]dioxolan-4-ylmethyl)-1H-pyrazol-3-yl]-amide] to `CCOc1ccccc1OC1=CC(=O)N([C@@H](CC(C)C)C(=O)Nc2ccn(C[C@@H]3COC(C)(C)O3)n2)C1` [Example 83, (S)-2-[4-(2-Ethoxy-phenoxy)-2-oxo-2,5-dihydro-pyrrol-1-yl]-4-methyl-pentanoic acid [1-((R)-2,2-dimethyl-[1,3]dioxolan-4-yl-methyl)-1H-pyrazol-3-yl]-amide], the “SC1.5 (concentration of activator that produced a 50% increase in the activity of GK)” value rises from 0.304 µM to 8.055 µM (26-fold).

`CCOc1ccc(F)c(OC2=CC(=O)N([C@@H](CC(C)C)C(=O)Nc3ccn(C[C@@H](O)CO)n3)C2)c1F` [Example 117, (S)-2-[4-(3-Ethoxy-2,6-difluoro-phenoxy)-2-oxo-2,5-dihydro-pyrrol-1-yl]-4-methyl-pentanoic acid [1-((R)-2,3-dihydroxy-propyl)-1H-pyrazol-3-yl]-amide] and `CCOc1cccc(OC2=CC(=O)N([C@@H](CC(C)C)C(=O)Nc3ccn(C[C@@H](O)CO)n3)C2)c1F` [Example 115, (S)-2-[4-(3-Ethoxy-2-fluoro-phenoxy)-2-oxo-2,5-dihydro-pyrrol-1-yl]-4-methyl-pentanoic acid [1-((R)-2,3-dihydroxy-propyl)-1H-pyrazol-3-yl]-amide] are within 1.5-fold of each other in “SC1.5 (concentration of activator that produced a 50% increase in the activity of GK)” value: 0.034 µM for the first, 0.027 µM for the second.

Going from `COc1ccc(F)c(OC2=CC(=O)N([C@@H](CC(C)C)C(=O)Nc3ccn(C[C@@H]4COC(C)(C)O4)n3)C2)c1F` [Example 118, (S)-2-[4-(2,6-Difluoro-3-methoxy-phenoxy)-2-oxo-2,5-dihydro-pyrrol-1-yl]-4-methyl-pentanoic acid [1-((R)-2,2-dimethyl-[1,3]dioxolan-4-yl-methyl)-1H-pyrazol-3-yl]-amide] to `CC1(C)OC[C@@H](Cn2ccc(NC(=O)[C@H](CC3CCCCC3)N3CC(Oc4ccccc4Cl)=CC3=O)n2)O1` [Example 62], the “SC1.5 (concentration of activator that produced a 50% increase in the activity of GK)” value falls from 0.256 µM to 0.01 µM (26-fold).

Going from `CC(C)C[C@@H](C(=O)Nc1ccn(C[C@@H](O)CO)n1)N1CC(Oc2cccc(N(C)C)c2F)=CC1=O.Cl` [Example 140, (S)-2-[4-(3-Dimethylamino-2-fluoro-phenoxy)-2-oxo-2,5-dihydro-pyrrol-1-yl]-4-methyl-pentanoic acid [1-((R)-2,3-dihydroxy-propyl)-1H-pyrazol-3-yl]-amide hydrochloride] to `CC(C)C[C@@H](C(=O)Nc1ccn(CC(=O)O)n1)N1CC(Oc2cccc(C3CC3)c2F)=CC1=O` [Example 149, (3-{(S)-2-[4-(3-Cyclopropyl-2-fluoro-phenoxy)-2-oxo-2,5-dihydro-pyrrol-1-yl]-4-methyl-pentanoylamino}-pyrazol-1-yl)-acetic acid], the “SC1.5 (concentration of activator that produced a 50% increase in the activity of GK)” value rises from 0.37 µM to 1.196 µM (3.2-fold).

Going from `CC(C)C[C@@H](C(=O)Nc1ccn(C)n1)N1CC(Oc2cccc(Cl)c2Cl)=CC1=O.Cl` [Example 78, (S)-2-[4-(2,3-Dichloro-phenoxy)-2-oxo-2,5-dihydro-pyrrol-1-yl]-4-methyl-pentanoic acid (1-methyl-1H-pyrazol-3-yl)-amide Hydrochloride] to `CC(C)C[C@@H](C(=O)Nc1ccn(CC(C)(C)O)n1)N1CC(Oc2cccc(C#N)c2)=CC1=O` [Example 138, (S)-2-[4-(3-Cyano-phenoxy)-2-oxo-2,5-dihydro-pyrrol-1-yl]-4-methyl-pentanoic acid [1-(2-hydroxy-2-methyl-propyl)-1H-pyrazol-3-yl]-amide], the “SC1.5 (concentration of activator that produced a 50% increase in the activity of GK)” value rises from 0.4 µM to 3.733 µM (9.3-fold).

`Cl.Cn1ccc(NC(=O)[C@H](CC2CCCCC2)N2CC(Oc3c(F)ccc(Cl)c3F)=CC2=O)n1` [Example 75, (S)-2-[4-(3-Chloro-2,6-difluoro-phenoxy)-2-oxo-2,5-dihydro-pyrrol-1-yl]-3-cyclohexyl-N-(1-methyl-1H-pyrazol-3-yl)-propionamide Hydrochloride] and `COC(=O)c1ccc(NC(=O)[C@H](CC2CCCCC2)N2CC(Oc3c(F)ccc(Cl)c3F)=CC2=O)nc1` [Example 73, 6-{(S)-2-[4-(3-Chloro-2,6-difluoro-phenoxy)-2-oxo-2,5-dihydro-pyrrol-1-yl]-3-cyclohexyl-propionylamino}-nicotinic acid methyl ester] are within 1.5-fold of each other in “SC1.5 (concentration of activator that produced a 50% increase in the activity of GK)” value: 0.037 µM for the first, 0.036 µM for the second.

Going from `CC(C)(O)Cn1ccc(NC(=O)[C@H](CC2CCCCC2)N2CC(Oc3ccccc3OCc3ccccc3)=CC2=O)n1` [Example 203, (S)-2-[4-(2-benzyloxy-phenoxy)-2-oxo-2,5-dihydro-pyrrol-1-yl]-3-cyclohexyl-N-[1-(2-hydroxy-2-methyl-propyl)-1H-pyrazol-3-yl]-propionamide] to `CC(C)(O)Cn1ccc(NC(=O)C(CC2CCOCC2)N2CC(Oc3ccccc3Br)=CC2=O)n1` (centres unmarked) [Example 261, 2-[4-(2-Bromo-phenoxy)-2-oxo-2,5-dihydro-pyrrol-1-yl]-N-[1-(2-hydroxy-2-methyl-propyl)-1H-pyrazol-3-yl]-3-(tetrahydro-pyran-4-yl)-propionamide], the “SC1.5 (concentration of activator that produced a 50% increase in the activity of GK)” value falls from 0.253 µM to 0.073 µM (3.5-fold).

Going from `CC(C)OC1=CC(=O)N([C@@H](CC2CCCC2)C(=O)Nc2ccn(CC(C)(C)O)n2)C1` [Example 15, (S)-3-Cyclopentyl-N-[1-(2-hydroxy-2-methyl-propyl)-1H-pyrazol-3-yl]-2-(4-isopropoxy-2-oxo-2,5-dihydro-pyrrol-1-yl)-propionamide] to `CC(C)(O)Cn1ccc(NC(=O)[C@H](CC2CCCCO2)N2CC(Oc3c(F)cccc3F)=CC2=O)n1` (stereo partly drawn) [Example 93, (S)-2-[4-(2,6-Difluoro-phenoxy)-2-oxo-2,5-dihydro-pyrrol-1-yl]-N-[1-(2-hydroxy-2-methyl-propyl)-1H-pyrazol-3-yl]-3-(tetrahydro-pyran-2-yl)-propionamide], the “SC1.5 (concentration of activator that produced a 50% increase in the activity of GK)” value falls from 1.832 µM to 0.477 µM (3.8-fold).

Going from `CC(C)(O)Cn1ccc(NC(=O)[C@H](C[C@H]2C[C@H](C)C2)N2CC(Oc3ccccc3Cl)=CC2=O)n1` (single isomer, unassigned) [Example 215] to `COc1cccc(OC2=CC(=O)N(C(CC(C)(C)F)C(=O)Nc3ccn(CC(C)(C)O)n3)C2)c1Cl` (centres unmarked) [Example 171, 2-[4-(2-Chloro-3-methoxy-phenoxy)-2-oxo-2,5-dihydro-pyrrol-1-yl]-4-fluoro-4-methyl-pentanoic acid [1-(2-hydroxy-2-methyl-propyl)-1H-pyrazol-3-yl]-amide], the “SC1.5 (concentration of activator that produced a 50% increase in the activity of GK)” value rises from 0.014 µM to 3.485 µM (250-fold).

Going from `COC(=O)c1ccc(NC(=O)[C@H](CC2CCCCC2)N2CC(Oc3c(F)cccc3Cl)=CC2=O)nc1` [Example 69, 6-{(S)-2-[4-(2-Chloro-6-fluoro-phenoxy)-2-oxo-2,5-dihydro-pyrrol-1-yl]-3-cyclohexyl-propionylamino}-nicotinic acid methyl ester] to `CCC[C@@H](C(=O)Nc1ccn(C[C@@H](O)CO)n1)N1CC(Oc2c(F)cccc2F)=CC1=O` [Example 157, (S)-2-[4-(2,6-Difluoro-phenoxy)-2-oxo-2,5-dihydro-pyrrol-1-yl]-pentanoic acid [1-((R)-2,3-dihydroxy-propyl)-1H-pyrazol-3-yl]-amide], the “SC1.5 (concentration of activator that produced a 50% increase in the activity of GK)” value rises from 0.047 µM to 1.849 µM (39-fold).
